Experiments:
[1] = tested on: Powdery Mildew (PM), Uncinula Necator; experiment: First year grape vine spray test (Thompson Seedless grapes); type: in vivo; details: summary of first year test
Excerpt: The objective of this study was to test the affect of capsicum on Powdery Mildew (PM), Uncinula Necator and Downey Mildew (DM), Plasmopara Viticola and its destruction of the grape vine, leaves, flag shoots, shoots and bunches. Grape varieties are susceptible to powdery mildew and Downey mildew, Thompson's Seedless grapes was used as a test subject.
Treatment began in the beginning of the season onto fruiting bodies (Cleistothecia) and the early stage of bud growth (3 to 5 inches). Later treatment was applied again, after about 3 weeks when there was new bud growth. When the fruits were about the size of small peas, treatment is once again applied to the bunches. Treatment was also planned to be administered if symptoms of fungal infections arose.
• Kalsec brand water soluble; Code #01-050-02-01 • MasterTaste brand oil soluble; Code 500087, Lot #059618
The grape vineyard to be treated is located at 19521 American Ave., Kerman Calif.,—Thompson Seedless grapes—NW corner. (Block 5B). Vines were sprayed with standard spray equipment (bottles). The spray was applied at approximately one foot away from the plants and vines. The spray was applied at an application rate of about ½ the usual spray application from a standard tractor rig. The budding fruit was sprayed along with the leaves and new budding growth. The spray was administered from the sides only. […]

[2] = cited from earlier work

For COc1cc(CNC(=O)CCCC/C=C/C(C)C)ccc1O [Capsaicin, N-vanillyl-8-methyl-6-(E)-noneamide], which “effect on growth of mildew on grape vines” value [1] is on record?
Its value is “hinders or kills the growth of mildew”.

What about the solubility in alcohol ([2]; alcohol) of the same molecule?
The solubility in alcohol was “soluble”.

What about the “solubility in cold water” value ([2]; cold water) of the same molecule?
Its value is “insoluble”.

What about the “solubility in fats, oils and alcohol” value ([2]; fats, oils and alcohol) of the same molecule?
Its value is “very soluble”.

And the solubility in water ([2]; water)?
The solubility in water was “sparingly soluble”.
